Reference: patent US11046716B2, “Beta-lactamase inhibitors” (priority 2015, dated 2021)

Tests used:
[1] = test system: E. coli expressing the Class A Extended Spectrum Beta-Lactamase (ESBL) CTX-M-15; experiment: Broth microdilution MIC assay with ceftazidime, E. coli CTX-M-15; format: cell-based; details: Fixed CAZ (ceftazidime) 4 μg/mL; E. coli ESBL4 CTX-M-15
Outline: (§1)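 Test compounds in 2-fold dilutions (16 to 0.125 μg/mL final) in CAMHB were combined with a β-lactam at a static 4 μg/ml final. Plates were inoculated per CLSI broth microdilution with the β-lactamase-producing strain (pre-grown 3-5 h) and incubated 16-20 h at 37° C. MIC of test compound was read visually.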

AmpC = target: T1, AmpC (Enterobacter cloacae, UniProt P05364); experiment: β-lactamase enzyme inhibition assay, p99 AmpC (nitrocefin substrate); format: biochemical
T1 construct: made in house; host or cells: E. coli BL21(DE3)
T1 sequence (P05364 21-381): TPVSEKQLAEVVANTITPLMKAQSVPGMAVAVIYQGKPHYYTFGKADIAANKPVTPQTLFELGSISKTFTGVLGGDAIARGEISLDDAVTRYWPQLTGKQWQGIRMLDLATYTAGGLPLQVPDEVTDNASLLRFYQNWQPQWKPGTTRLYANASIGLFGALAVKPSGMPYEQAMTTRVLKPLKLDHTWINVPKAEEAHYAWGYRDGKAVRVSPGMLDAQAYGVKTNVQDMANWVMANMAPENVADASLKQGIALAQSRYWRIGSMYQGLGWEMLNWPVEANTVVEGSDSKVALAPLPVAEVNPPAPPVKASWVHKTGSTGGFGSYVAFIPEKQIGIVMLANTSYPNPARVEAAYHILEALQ
Outline: (§2)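 Native untagged enzymes expressed in E. coli BL21(DE3), purified by cation exchange and gel filtration. Inhibitor preincubated with enzyme 15 min at 37 °C; hydrolysis followed by absorbance. IC50 as concentration halving initial hydrolysis rate versus inhibitor-free wells.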

KPC-2 = target: T2, KPC-2 (Klebsiella pneumoniae, UniProt Q9F663); experiment: β-lactamase enzyme inhibition assay, KPC-2 (imipenem substrate); format: biochemical; details: Class A; imipenem substrate, 300 nm; read-out: KPC-2
T2 construct: made in house; host or cells: E. coli BL21(DE3)
T2 sequence (Q9F663 25-293, looked up): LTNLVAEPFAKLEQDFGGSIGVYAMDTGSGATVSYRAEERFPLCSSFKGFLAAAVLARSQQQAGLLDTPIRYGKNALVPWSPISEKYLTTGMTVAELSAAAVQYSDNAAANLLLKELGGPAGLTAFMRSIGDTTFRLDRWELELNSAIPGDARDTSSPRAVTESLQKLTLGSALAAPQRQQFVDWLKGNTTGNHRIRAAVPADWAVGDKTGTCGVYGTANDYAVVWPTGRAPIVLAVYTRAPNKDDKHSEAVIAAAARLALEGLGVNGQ
Outline: as §2, with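 “absorbance: imipenem at 300 nm for KPC-2, cefotaxime at 260 nm for SHV-5.” for “absorbance.”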

[2] = test system: K. pneumoniae expressing the Class A carbapenemase KPC-2; experiment: Broth microdilution MIC assay with meropenem, K. pneumoniae KPC-2; format: cell-based; details: Fixed Mero (meropenem) 4 μg/mL; K. p. 156319 KPC-3
Outline: as §1

[3] = test system: P. aeruginosa expressing the Class B carbapenemase VIM-2; experiment: Broth microdilution MIC assay with meropenem, P. aeruginosa VIM-2; format: cell-based; details: Fixed Mero (meropenem) 4 μg/mL; P. aerug. 2775 VIM-2
Outline: as §1

[4] = test system: K. pneumoniae expressing the class A carbapenemase KPC-2 and the class B carbapenemase VIM-4; experiment: Broth microdilution MIC assay with meropenem, K. pneumoniae KPC-2 and VIM-4; format: cell-based; details: Fixed Mero (meropenem) 4 μg/mL; K. p. A-1797 KPC-2 VIM-4
Outline: as §1

SHV-5 = target: T3, SHV-5 (Klebsiella pneumoniae, UniProt P0A3M1); experiment: β-lactamase enzyme inhibition assay, SHV-5 (cefotaxime substrate); format: biochemical
T3 construct: made in house; host or cells: E. coli BL21(DE3)
T3 sequence (P0A3M1 22-286): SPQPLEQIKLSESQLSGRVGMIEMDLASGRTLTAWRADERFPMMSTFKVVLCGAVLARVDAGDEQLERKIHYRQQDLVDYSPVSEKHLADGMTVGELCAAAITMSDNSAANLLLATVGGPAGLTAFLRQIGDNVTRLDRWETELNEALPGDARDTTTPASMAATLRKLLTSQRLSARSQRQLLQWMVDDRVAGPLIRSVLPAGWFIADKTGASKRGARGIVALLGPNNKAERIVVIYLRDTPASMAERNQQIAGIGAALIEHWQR
Outline: as §2, with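 “absorbance: imipenem at 300 nm for KPC-2, cefotaxime at 260 nm for SHV-5.” for “absorbance.”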

OXA-48 = OXA-48 (UniProt Q6XEC0); experiment: β-lactamase enzyme inhibition assay, Class D oxacillinase; format: biochemical; details: read-out: OXA-48
VIM-2 = target: T4, VIM-2 (Escherichia coli, UniProt Q5U7L7); experiment: β-lactamase enzyme inhibition assay, VIM-2 (nitrocefin substrate); format: biochemical; details: Class B; nitrocefin substrate, 486 nm; read-out: VIM-2
T4 construct: made in house; host or cells: E. coli BL21(DE3)
Outline: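 Purified VIM-2 preincubated with inhibitor for 15 min at 37° C, then nitrocefin (100 μM final) added and absorbance at 486 nm followed for 10 min. Maximum hydrolysis rates compared with inhibitor-free controls; IC50 fitted from percent inhibition across inhibitor concentrations.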

[5] = test system: E. cloacae expressing the Class C P99; experiment: Broth microdilution MIC assay with ceftazidime, E. cloacae P99; format: cell-based; details: Fixed CAZ (ceftazidime) 4 μg/mL; E. cl. 144200 p99 AmpC
Outline: as §1

[6] = test system: K. pneumoniae producing the Class D carbapenemase OXA-48; experiment: Broth microdilution MIC assay with meropenem, K. pneumoniae OXA-48; format: cell-based; details: Fixed Mero (meropenem) 4 μg/mL; K. p. 11978 OXA-48
Outline: as §1

| SMILES | MIC (μg/mL) of Exemplary Compounds in presence of fixed β-lactams: E. coli ESBL4 CTX-M-15 [1] | IC50 (AmpC) [nM] | IC50 (KPC-2) [nM] | MIC (μg/mL) of Exemplary Compounds in presence of fixed β-lactams: K. p. 156319 KPC-3 [2] | MIC (μg/mL) of Exemplary Compounds in presence of fixed β-lactams: P. aerug. 2775 VIM-2 [3] | MIC (μg/mL) of Exemplary Compounds in presence of fixed β-lactams: K. p. A-1797 KPC-2 VIM-4 [4] | IC50 (SHV-5) [nM] | IC50 (OXA-48) [nM] | IC50 (VIM-2) [nM] | MIC (μg/mL) of Exemplary Compounds in presence of fixed β-lactams: E. cl. 144200 p99 AmpC [5] | MIC (μg/mL) of Exemplary Compounds in presence of fixed β-lactams: K. p. 11978 OXA-48 [6] |
| --- | --- | --- | --- | --- | --- | --- | --- | --- | --- | --- | --- |
| O=C(Cc1cn2ccsc2n1)N[C@H]1Cc2cccc(C(=O)O)c2OB1O [Example 78, (R)-2-hydroxy-3-(2-(imidazo[2,1-b]thiazol-6-yl)acetamido)-3,4-dihydro-2H-benzo[e][1,2]oxaborinine-8-carboxylic acid] | C (C represents an MIC of <1 μg/mL) | < 100 | < 100 | B (B represents an MIC between 1 and 16 μg/mL inclusive) | B (B represents an MIC between 1 and 16 μg/mL inclusive) | A (A represents an MIC>16 μg/mL) | < 100 | < 100 | 100 to 1000 | C (C represents an MIC of <1 μg/mL) | B (B represents an MIC between 1 and 16 μg/mL inclusive) |
| CNCc1nnn(CC(=O)N[C@H]2Cc3cccc(C(=O)O)c3OB2O)c1CO [Example 14, (R)-2-hydroxy-3-(2-(5-(hydroxymethyl)-4-((methylamino)methyl)-1H-1,2,3-triazol-1-yl)acetamido)-3,4-dihydro-2H-benzo[e][1,2]oxaborinine-8-carboxylic acid] | B (B represents an MIC between 1 and 16 μg/mL inclusive) | < 100 | 100 to 1000 | B (B represents an MIC between 1 and 16 μg/mL inclusive) | B (B represents an MIC between 1 and 16 μg/mL inclusive) | B (B represents an MIC between 1 and 16 μg/mL inclusive) | 100 to 1000 | 100 to 1000 | 100 to 1000 | C (C represents an MIC of <1 μg/mL) | B (B represents an MIC between 1 and 16 μg/mL inclusive) |
| NCCOCc1cn(CC(=O)N[C@H]2Cc3cccc(C(=O)O)c3OB2O)nn1 [Example 34, (R)-3-(2-(4-((2-aminoethoxy)methyl)-1H-1,2,3-triazol-1-yl)acetamido)-2-hydroxy-3,4-dihydro-2H-benzo[e][1,2]oxaborinine-8-carboxylic acid] | C (C represents an MIC of <1 μg/mL) | < 100 | < 100 | B (B represents an MIC between 1 and 16 μg/mL inclusive) | C (C represents an MIC of <1 μg/mL) | B (B represents an MIC between 1 and 16 μg/mL inclusive) | < 100 | 1000 to 10000 | 100 to 1000 | C (C represents an MIC of <1 μg/mL) | B (B represents an MIC between 1 and 16 μg/mL inclusive) |
| NC1CCN(C(=O)c2cn(CC(=O)N[C@H]3Cc4cccc(C(=O)O)c4OB3O)nn2)CC1 [Example 82, (R)-3-(2-(4-(4-aminopiperidine-1-carbonyl)-1H-1,2,3-triazol-1-yl)acetamido)-2-hydroxy-3,4-dihydro-2H-benzo[e][1,2]oxaborinine-8-carboxylic acid] | C (C represents an MIC of <1 μg/mL) | < 100 | < 100 | C (C represents an MIC of <1 μg/mL) | C (C represents an MIC of <1 μg/mL) | B (B represents an MIC between 1 and 16 μg/mL inclusive) | < 100 | 100 to 1000 | 100 to 1000 | C (C represents an MIC of <1 μg/mL) | C (C represents an MIC of <1 μg/mL) |
| N=C(N)NCCn1nnc(CC(=O)N[C@H]2Cc3cccc(C(=O)O)c3OB2O)n1 [Example 48, (R)-3-(2-(2-(2-guanidinoethyl)-2H-tetrazol-5-yl)acetamido)-2-hydroxy-3,4-dihydro-2H-benzo[e][1,2]oxaborinine-8-carboxylic acid] | C (C represents an MIC of <1 μg/mL) | < 100 | < 100 | B (B represents an MIC between 1 and 16 μg/mL inclusive) | C (C represents an MIC of <1 μg/mL) | B (B represents an MIC between 1 and 16 μg/mL inclusive) | < 100 | 1000 to 10000 | < 100 | C (C represents an MIC of <1 μg/mL) | B (B represents an MIC between 1 and 16 μg/mL inclusive) |
| NCCc1nnn(CC(=O)N[C@H]2Cc3cccc(C(=O)O)c3OB2O)n1 [Example 103, (R)-3-(2-(5-(2-aminoethyl)-2H-tetrazol-2-yl)acetamido)-2-hydroxy-3,4-dihydro-2H-benzo[e][1,2]oxaborinine-8-carboxylic acid] | C (C represents an MIC of <1 μg/mL) | < 100 | < 100 | C (C represents an MIC of <1 μg/mL) | C (C represents an MIC of <1 μg/mL) | B (B represents an MIC between 1 and 16 μg/mL inclusive) | 100 to 1000 | 100 to 1000 | 100 to 1000 | C (C represents an MIC of <1 μg/mL) | B (B represents an MIC between 1 and 16 μg/mL inclusive) |
| NCCCn1nnc(CC(=O)N[C@H]2Cc3cccc(C(=O)O)c3OB2O)n1 [Example 51] | C (C represents an MIC of <1 μg/mL) | < 100 | < 100 | C (C represents an MIC of <1 μg/mL) | C (C represents an MIC of <1 μg/mL) | B (B represents an MIC between 1 and 16 μg/mL inclusive) | < 100 | 1000 to 10000 | < 100 | C (C represents an MIC of <1 μg/mL) | B (B represents an MIC between 1 and 16 μg/mL inclusive) |
| NCCSCc1cn(CC(=O)N[C@H]2Cc3cccc(C(=O)O)c3OB2O)nn1 [Example 63, (R)-3-(2-(4-(((2-aminoethyl)thio)methyl)-1H-1,2,3-triazol-1-yl)acetamido)-2-hydroxy-3,4-dihydro-2H-benzo[e][1,2]oxaborinine-8-carboxylic acid] | C (C represents an MIC of <1 μg/mL) | < 100 | < 100 | C (C represents an MIC of <1 μg/mL) | C (C represents an MIC of <1 μg/mL) | B (B represents an MIC between 1 and 16 μg/mL inclusive) | < 100 | 100 to 1000 | 100 to 1000 | C (C represents an MIC of <1 μg/mL) | B (B represents an MIC between 1 and 16 μg/mL inclusive) |
